The values below come from patent publication EP4458353A1, “ANTICARIOGENIC SYNERGETIC COMPOSITION FOR ORAL CARE” (SkyLab AG, priority 2023, dated 2024).

Usually MIC stands for the smallest concentration in the dilution series that meets the test's criterion for growth inhibition.

Read-outs that look alike come from different tables or passages of the source.

Common to all, as to format: cell-based
Experiment [1] has as its system Streptococcus sobrinus. Description: Minimum inhibitory concentration (MIC), serial two-fold dilution with resazurin test. The note with it: for MIC: Streptococcus sobrinus. In general terms: The colour change of resazurin is a common sign of viable cells or microbes.
Experiment [2] deals with Streptococcus sobrinus. Briefly: Minimum biofilm inhibitory concentration (MBIC), crystal violet staining. The settings on record: S. sobrinus; for MBIC in indicvdual replicates Replicate 1 / MBIC in indicvdual replicates Replicate 2 / MBIC in indicvdual replicates Replicate 3 / MBIC in indicvdual replicates Replicate 4 / MBIC in indicvdual replicates Replicate 5: 24 h incubation; for MBIC Median value: median of 5 replicates. The procedure:
(§1) Group of examples No 4 - 6. Anti-biofilm activity of the substance or of the composition of substances was assessed from minimum biofilm inhibitory concentration (MBIC) and from the rate of biofilm formation on hydroxyapatite disks.
(§2) Reference strains Streptococcus mutans and S. Sobrinus were used as the bacterial models.
(§3) Example No 4. MBIC as the measure of the substance effect on the bacterial biofilm is equal to minimum concentration inhibiting the biofilm formation or disruption of already formed biofilm during 24 hour incubation.
(§4) MBIC of individual components of the composition, specifically, naringenin, guava leaf CO2 extract, and enzymes lysozyme and labiase can be determined according to the procedure: • 1) All stages of nutritive medium preparation, preparation and incubation of bacterial cultures in 96-well microtiter plates with the test composition of the substances added into nutritive medium were as described in Example 1. • 2) All controls for the culture growth, for purity of nutritive medium and for solvents were as described in Example 1. • 3) Incubate the plates at 37 °C for 24 ± 4 h without the use the orbital shaker. • 4) Stain the bacterial biofilm accumulated on bottom of the plate wells with crystal violet. For this purpose remove the planktonic culture from the plate wells after 24 h incubation and wash with two portions of phosphate-buffered saline (PBS, pH 7.4) to remove remaining planktonic culture. Then dry the plate for 12-15 hours. Add 100 µL of 0.5% crystal violet solution (Sigma-Aldrich, USA), dissolved in 96% ethanol followed by incubation for 20 minutes. After removal of crystal violet solution from the wells wash the plate with 3-4 portions of PBS. After drying add […] of 96% ethanol into the wells to elute the crystal violet, which has bound to the biofilm. • 5) Shake the plate on the orbital shaker for 2 minutes at 37 °C and then measure optical density (OD) at the wavelength of 550nm using multimodal microplate reader against the blank (the well, where the sterile medium LB was incubated and then exposed to all staining manipulations). Since the serial dilution method with 2-fold dilution steps is used for MBIC determination, the difference between the adjacent dilution is considered as non-significant, and MBIC is defined as the median value calculated for 5 independent biological replicates of the experiment. • 6) The following concentrations were tested: naringenin and guava leaf extract at concentrations 1.6, 0.8, 0.4, 0.2, 0.1, 0.05 mg/mL; lysozyme and labiase at concentrations 4.0, 2.0, 1.0, 0.5, 0.25, 0.125 mg/mL. Well-known antibacterial components were used as controls: chlorohexidine bigluconate at concentrations 64, 32, 16, 8, 4 µg/mL; zinc gluconate at concetrations 5.0, 2.5, 1.25, 0.6, 0.3, 0.15 mg/mL.

For experiment [3], the system named is Streptococcus mutans. Described as above. The settings on record: S. mutans; for MBIC in indicvdual replicates Replicate 1 / MBIC in indicvdual replicates Replicate 2 / MBIC in indicvdual replicates Replicate 3 / MBIC in indicvdual replicates Replicate 4 / MBIC in indicvdual replicates Replicate 5: 24 h incubation; for MBIC Median value: median of 5 replicates. The procedure: as §1, §2, §3, §4

Experiment [4] relates to Streptococcus mutans. Description: Minimum inhibitory concentration (MIC), serial two-fold dilution with resazurin test. The settings on record: for MIC: Streptococcus mutans.
Setting [5] is: 24 h, read-out: MIC value in individual replicate Replicate 1.
[6] abbreviates: 24 h, read-out: MIC value in individual replicate Replicate 2.
Where [7] appears, read: 24 h, read-out: MIC value in individual replicate Replicate 3.
[8] abbreviates: 24 h, read-out: MIC value in individual replicate Replicate 4.
Setting [9] is: 24 h, read-out: MIC value in individual replicate Replicate 5.

zinc gluconate: in the experiment on Streptococcus sobrinus [1] (S. sobrinus, 24 h at 37 °C), the “MIC value in individual replicate Replicate 1” value is 5000 µg/mL, the “MIC value in individual replicate Replicate 2” value is 5000 µg/mL, the “MIC value in individual replicate Replicate 3” value was 5000 µg/mL and the “MIC value in individual replicate Replicate 4” value came to 5000 µg/mL. Moreover, in the experiment with Streptococcus sobrinus [1] (S. sobrinus, 24 h at 37 °C), the “MIC value in individual replicate Replicate 5” value stood at 5000 µg/mL. Moreover, the “MIC Median value” in the experiment on Streptococcus sobrinus [1] (S. sobrinus, median of 5 replicates) was determined as 5000 µg/mL. Further, in the experiment with Streptococcus sobrinus [2], the “MBIC in indicvdual replicates Replicate 1” value is recorded as 5.0 mg/mL, the “MBIC in indicvdual replicates Replicate 2” value is recorded as 5.0 mg/mL, the “MBIC in indicvdual replicates Replicate 3” value was 2.5 mg/mL and the “MBIC in indicvdual replicates Replicate 4” value is 2.5 mg/mL. Moreover, in the experiment with Streptococcus sobrinus [2], the “MBIC in indicvdual replicates Replicate 5” value was 2.5 mg/mL and the “MBIC Median value” was 2.5 mg/mL. Also, in the experiment with Streptococcus mutans [3], the “MBIC in indicvdual replicates Replicate 1” value is 1.25 mg/mL, the “MBIC in indicvdual replicates Replicate 2” value came to 1.25 mg/mL, the “MBIC in indicvdual replicates Replicate 3” value was 0.6 mg/mL and the “MBIC in indicvdual replicates Replicate 4” value came to 0.6 mg/mL. In the experiment on Streptococcus mutans [3], the “MBIC in indicvdual replicates Replicate 5” value is given as 0.6 mg/mL and the “MBIC Median value” is 0.6 mg/mL. In the experiment with Streptococcus mutans [4] (S. mutans, 24 h at 37 °C), the “MIC value in individual replicate Replicate 1” value came out at 600 µg/mL, the “MIC value in individual replicate Replicate 2” value turned out to be 600 µg/mL, the “MIC value in individual replicate Replicate 3” value worked out at 300 µg/mL and the “MIC value in individual replicate Replicate 4” value was 300 µg/mL. Moreover, the “MIC value in individual replicate Replicate 5” value in the experiment with Streptococcus mutans [4] (S. mutans, 24 h at 37 °C) was found to be 300 µg/mL. Moreover, the “MIC Median value” against Streptococcus mutans [4] (S. mutans, median of 5 replicates) worked out at 300 µg/mL.
On to `N=C(NCCCCCCNC(=N)NC(=N)Nc1ccc(Cl)cc1)NC(=N)Nc1ccc(Cl)cc1` [Chlorohexidine bigluconate, chlorohexidine bigluconate], for which the MIC in the experiment with Streptococcus sobrinus [1] (setting [5]) was found to be 4 µg/mL; in the experiment with Streptococcus sobrinus [1] (setting [6]) it was 4 µg/mL; in the experiment with Streptococcus sobrinus [1] (setting [7]), 4 µg/mL; in the experiment on Streptococcus sobrinus [1] (setting [8]), 8 µg/mL; in the experiment on Streptococcus sobrinus [1] (setting [9]), 4 µg/mL; in the experiment with Streptococcus sobrinus [1] (read-out: MIC Median value), 4 µg/mL. Besides, the MIC in the experiment with Streptococcus mutans [4] (setting [5]), in the experiment on Streptococcus mutans [4] (setting [6]), in the experiment on Streptococcus mutans [4] (setting [7]), in the experiment on Streptococcus mutans [4] (setting [8]), in the experiment with Streptococcus mutans [4] (setting [9]) and with Streptococcus mutans [4] (read-out: MIC Median value) was 8 µg/mL throughout. The “MBIC in indicvdual replicates Replicate 1” value in the experiment on Streptococcus sobrinus [2] is 0.004 mg/mL; with Streptococcus mutans [3] it was 0.008 mg/mL. Moreover, the “MBIC in indicvdual replicates Replicate 2” value worked out at 0.004 mg/mL in the experiment on Streptococcus sobrinus [2] and 0.008 mg/mL in the experiment with Streptococcus mutans [3]. In addition, the “MBIC in indicvdual replicates Replicate 3” value in the experiment on Streptococcus sobrinus [2] and with Streptococcus mutans [3] was 0.008 mg/mL each time. Moreover, the “MBIC in indicvdual replicates Replicate 4” value with Streptococcus sobrinus [2] was 0.004 mg/mL; in the experiment on Streptococcus mutans [3], 0.008 mg/mL. In addition, the “MBIC in indicvdual replicates Replicate 5” value in the experiment on Streptococcus sobrinus [2] and in the experiment with Streptococcus mutans [3] was 0.004 mg/mL throughout. The “MBIC Median value” with Streptococcus sobrinus [2] amounted to 0.004 mg/mL; with Streptococcus mutans [3], 0.008 mg/mL.
